In patent publication US12351574B2, “Selective ligands for modulation of GIRK channels” (Northeastern University, priority 2018, dated 2025):

What was measured:
[1] = system: fear memories (freezing behavior); assay: cued fear conditioning test; format: in vivo, rat; conditions: for effect on fear acquisition (in words): FIG. 62A
Procedure: Cued fear conditioning test: On day 1, animals were habituated to the sound attenuating fear conditioning chamber (Kinder Scientific, Poway, CA) for 10 min. Between each animal, the chamber was cleaned with 70% ethanol. On day 2, acquisition of fear was achieved by placing rats back into the chamber for a 120 s acclimation period and then five pairings (120 s inter-trial interval) of the conditioned stimulus (CS; 20 s, 80 dB) followed immediately by the unconditioned shock stimulus (US; 500 ms, 0.8 mA foot shock). On day 3, CS consolidation was assessed by placing the rats back into the chamber with a 120 s acclimation period followed by five presentations of the CS only (20 s, 80 dB) with 120 s inter-trial-intervals. On day 4, extinction was assessed by presenting a 120 s acclimation period followed by 20 trials of the CS (20 s, 80 dB) with 120 s inter-trial-intervals. The same experimenter (SDF) handled the rats during all sessions and was blinded to the treatment. All trials were digitally video-recorded. For this behavioral test and all others, blind scoring was aided by modification of video file names by AIM. Freezing behavior (no visible signs of movement) was scored by SDF during the sound presentation and converted to percentage of total time. The acquisition, expression, extinction and recall of fear memories were assessed in a […] learning paradigm (modified from Johnson, P. L., et al., Pharmacological depletion of serotonin in the basolateral amygdala complex reduces anxiety and disrupts fear conditioning, Pharmacol Biochem Behav, 2015. 138: p. 174-9). Rats were habituated to the sound attenuating fear conditioning chamber on day 1 (Kinder Scientific, Poway, CA) for 10 min. For all experiments, the chamber was cleaned between animals. On day 2 acquisition of fear occurred where the rats were placed back into the chamber and after a 120 s acclimation period received 5 pairings (120 s inter-trial interval) of the conditioned stimulus (CS; 20 s, 80 dB) followed immediately by the unconditioned shock stimulus (US; 500 ms, 0.8 mA foot shock). On day 3 conditioned stimulus (CS) consolidation was assessed by placing the rats back into the chamber with a 120 s acclimation period followed by 5 presentations of the CS only (20 s, 80 dB) separated by 120 s. On day 4 extinction was assessed which consisted of the 120 s acclimation period followed by 20 trials of the CS (20 s, 80 dB) separated by 120 s intervals. On day 5, all animals were assessed for the recall. Animals were placed in the chamber and were presented with 5 tones. The same experimenter handled the rats during all sessions and was blinded to the phenotype. All trials were digitally video-recorded. Freezing behavior (no visible signs of movement) was scored by a blind scorer during the sound presentation and converted to percentage of total time.

GIRK1/4 = molecular target: T1, GIRK1/4 (Homo sapiens, UniProt P48544+P48549); assay: diC8-PIP2 concentration-response (NPo), inside-out macropatches from Xenopus oocytes, GIRK1/4; format: cell-based; set-up: expressed in transfected cells; host or cells: Xenopus laevis oocytes (cRNA injection); conditions: in the presence of 10 μM compound; for apparent affinity of GIRK1/4 channels for diC8-PIP2: control 48.4±8 μM
T1 sequence (P48549 1-501): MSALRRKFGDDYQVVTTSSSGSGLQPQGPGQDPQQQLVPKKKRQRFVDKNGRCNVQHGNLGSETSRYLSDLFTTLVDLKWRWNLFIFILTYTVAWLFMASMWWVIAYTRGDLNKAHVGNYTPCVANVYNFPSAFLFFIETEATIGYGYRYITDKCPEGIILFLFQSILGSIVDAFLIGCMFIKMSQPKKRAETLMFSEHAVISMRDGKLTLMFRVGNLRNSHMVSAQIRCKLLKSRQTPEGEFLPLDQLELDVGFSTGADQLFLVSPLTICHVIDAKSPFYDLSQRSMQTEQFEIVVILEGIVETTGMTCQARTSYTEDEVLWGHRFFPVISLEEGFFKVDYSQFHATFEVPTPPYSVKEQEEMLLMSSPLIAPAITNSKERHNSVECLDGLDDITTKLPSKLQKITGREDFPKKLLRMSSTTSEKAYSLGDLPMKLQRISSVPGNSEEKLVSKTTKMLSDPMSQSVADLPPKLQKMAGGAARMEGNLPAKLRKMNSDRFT
T1 sequence (P48544 1-419): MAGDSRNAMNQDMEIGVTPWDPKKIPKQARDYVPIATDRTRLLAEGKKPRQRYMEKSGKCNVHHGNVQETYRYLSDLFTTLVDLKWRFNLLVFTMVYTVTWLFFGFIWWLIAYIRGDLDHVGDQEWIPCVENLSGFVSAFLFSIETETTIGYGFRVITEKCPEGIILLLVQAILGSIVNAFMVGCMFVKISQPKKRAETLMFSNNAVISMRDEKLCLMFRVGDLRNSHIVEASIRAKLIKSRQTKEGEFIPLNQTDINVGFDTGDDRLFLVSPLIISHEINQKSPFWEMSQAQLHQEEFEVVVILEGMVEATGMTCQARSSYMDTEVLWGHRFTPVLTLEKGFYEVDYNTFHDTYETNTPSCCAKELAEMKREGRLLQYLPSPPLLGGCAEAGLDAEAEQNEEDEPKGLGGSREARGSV
Description: The inventors next turned to inside-out macropatches from Xenopus oocytes to compare changes in the PIP2 sensitivity by examining diC8 concentration-responses in the absence and presence of saturating concentrations of each of the activating compounds. […] In FIG. 14B, the control plot overlays the GAT1508 and GAT1521 plots; only ML297 was able to left-shift the sensitivity of GIRK1/4 heteromers to PIP2, while both GAT1508 and GAT1521 were ineffective in changing the sensitivity of these heteromers to PIP2.
Xenopus laevis oocyte expression: Plasmid DNAs of GIRK channel subunits were linearized prior to in vitro transcription. Capped RNAs were transcribed using mMESSAGE mMACHINE T7 Transcription Kit (Thermo Fisher Scientific). Xenopus oocytes were surgically extracted, dissociated and defolliculated by collagenase treatment, and microinjected with 50 nl of a water solution containing 1 ng of each GIRK subunit RNA. For TEVC experiments, oocytes were kept 2 days at 17° C. before recording, while for NPo experiments oocytes were incubated for up to 4 days at 17° C.
Oocyte macropatch studies: Macropatch GIRK channel activity was recorded from devitellinized oocytes under the inside-out mode of standard patch clamp methods using an AM2400 patch clamp amplifier (A-M systems). […] Oocytes were bathed with a solution comprising (in mM): 96 KCl, 5 EGTA, 1 MgATP and 10 HEPES (pH 7.4). Current amplitudes were measured at −80 mV with a sampling rate of 10 kHz. Data were analyzed using WinEDR and Clampfit software (Molecular Devices).

[2] = 10 or 30 mg/kg i.p., FIGS. 27, 28
[3] = 10 or 30 mg/kg i.p., after acquisition and 30 min prior to consolidation, FIGS. 27, 28
[4] = 30 mg/kg, vehicle tone 5 (GAT1521 study), tone 6 (ML297 study)

apparent affinity of GIRK1/4 channels for diC8-PIP2 (GIRK1/4) [µM]	EMAX of diC8-PIP2 response (NPo), GIRK1/4 (GIRK1/4; control 4.4±0.2)	Compound	effect on fear acquisition (in words) ([1]; 10 mg/kg)	effect on fear consolidation (in words) ([1]; 10 mg/kg, FIG. 62B)	effect on fear acquisition (in words) ([1]; 30 mg/kg, early pairings)	extinction of fear memories versus vehicle (in words) [1, 2]	effect on consolidation of fear memories (in words) [1, 3]	recall of the freezing behavior (in words) ([1]; FIG. 62E)	tone by which freezing was significantly reduced during extinction ([1]; GAT1508 group, control group tone 7) [tone]	fear extinction of the freezing behavior (in words) ([1]; follow-up experiments, FIGS. 62C-62D, 63)	effect on consolidation of fear memories (in words) ([1]; 30 mg/kg, FIG. 29)	extinction of fear memories versus controls (in words) ([1]; 30 mg/kg, FIG. 29)	tone by which freezing was significantly reduced during extinction [1, 4] [tone]
46 ± 7.4		Cc1cc(NC(=O)Nc2ccc(Br)s2)n(-c2ccccc2)n1 [GAT1508, 1-(5-bromothiophen-2-yl)-3-(3-methyl-1-phenyl-1H-pyrazol-5-yl)urea]	no significant effects	no significant effects	significant reductions in fear acquisition	extinguished fear memories much faster	no effects	No significant changes	4	more efficient extinction of the freezing behavior			
17.4 ± 2	5.4±0.2	Cc1cc(NC(=O)Nc2ccc(F)c(F)c2)n(-c2ccccc2)n1 [ML297, reference compound]									no effect	no significant differences	6
51 ± 6.5		Cc1cc(NC(=O)Nc2ccc(C)s2)n(-c2ccccc2)n1 [GAT1521, 1-(3-methyl-1-phenyl-1H-pyrazol-5-yl)-3-(5-methylthiophen-2-yl)urea]				significantly reduced overall freezing during extinction	affected consolidation of fear memories						3
